In one assay the test system is Platelet poor plasma. Put plainly: Blood clotting time in vitro (APTT, PT, TT). The assay is classed as biochemical, rats. The following applies: PT and TT tests, final concentration 0.05 mg/mL. On the procedure:
Rats were anaesthetized with 10% chloral hydrate (3 mL/kg). The blood obtained from the abdominal aorta was collected directly into citrated tubes containing 3.8% sodium citrate (1:9 (v/v)) and was used immediately after collection. Platelet poor plasma […] was prepared by centrifuging the blood at 3000 rpm for 20 min at 20 °C [24]. Plasma samples with jaundice, chylus, hemolysis and blood clot were excluded prior to the assays. Plasma mixtures were 90 μL of PRP with 10 μL of tested compounds (0.5 mg/mL, dissolved in DMSO). For PRP in the solvent group, the sample was 90 μL of PRP with 10 μL of DMSO. For PRP in the normal control group, the plasma was not-treated PRP sample. For PRP in the heparin group, the sample was 90 μL of PRP with 10 μL of heparin (0.1 mg/mL), which was used as the positive control drug.
Blood coagulation assays were carried out using a coagulation analyzer at the Blood Center clinical laboratory in the Second Hospital affiliated to Jilin University (Changchun, China). Measurements of APTT, PT and TT were performed according to the manufacturer’s recommended protocols. The anti-coagulant activity was expressed as clotting time ± standard deviation (S.D.). Briefly, for APTT assay, 50 μL of the plasma mixture was incubated at 37 °C for 60 s and the mixture was added to the APTT reagent (50 μL) and incubated at 37 °C for 15 min. Finally, APTT values were recorded. For the PT assay, 50 μL of the plasma mixture was incubated at 37 °C for 60 s and then added into the PT reagent (100 μL) prior to incubation at 37 °C for 15 min before the PT values were recorded. For the TT assay, 80 μL of the plasma mixture was incubated at 37 °C for 60 s before the addition of 80 μL of TT reagent for 100 s. TT values were determined by the coagulation analyzer.

The target of assay [1] is T1, coagulation factor Xa (FXa) (Bos taurus, UniProt P00743).
T1 construct: purchased New England Biolabs (Hitchin, UK)
As to the kind of experiment: FXa activity assay in vitro (chromogenic substrate method). The assay is classed as biochemical. On the procedure: 10 µL of FXa (final concentration of 0.5 nM), 40 µL of Tris buffer (adjusted to pH 7.4 with HCl containing 0.3 M NaCl and 50 mM Tris) and 10 µL of test compounds were added to the well, respectively. The negative control was performed using the same mixed solutions except that the test compound was replaced with DMSO. […] After 15 min of incubation at 37 °C, FXa substrate (40 μL, final concentration of […]) was added and then was incubated 37 °C for 25 min [3]. The optical density (OD) values at 405 nm were evaluated by an automated microplate reader. […] Inhibition rate was calculated by the following formula: Anti-FXa activity = (V0 − Vi)/V0 [21]. The IC50 value was subsequently calculated by SPSS 19.0.

The next assay deals with blood coagulation. The following applies: 0.05 mg/mL final concentration vs 0.1 mg/mL heparin; cited from earlier work.
The target in the next assay is T2, human FIIa (thrombin) (Homo sapiens, UniProt P00734).
T2 construct: purchased Hyphen BioMed (Paris, France)
As to the kind of experiment: Thrombin inhibition in vitro (chromogenic substrate CS-01(38)). The following applies: pH 7.4, 37 °C, 405 nm. The assay is classed as biochemical. On the procedure: The inhibition of thrombin was evaluated by human FIIa and chromogenic substrate CS-01(38) in 96-well microtiter plates at room temperature. Compounds 5, 13 and 18 as well as the positive reagent Ximelagatran were dissolved in DMSO to a concentration of 1mM and then serially diluted to a range of 10 μM to 100 μM, respectively. 8 μL of FIIa (3 NIH U/mL), 80 μL of Tris buffer (adjusted to pH 7.4 with HCl) containing 0.3 M NaCl and 50 mM Tris and 8 μL of test compounds were added to the well, respectively. The negative control was performed using the same mixed solutions except that tested compounds were replaced with DMSO. The positive control was performed using the same mixed solutions except that the test compounds were replaced with ximelagatran. After incubation at 37 °C for 15 min, 12 μL of FIIa substrate solution (4 mM) was added and then incubated at 37 °C for 25 min [3]. The anti-FIIa activity was measured at 405 nm using a microplate reader.

The next assay concerns FXa. More on the design: method as in PMID 24412029, PMID 22216842. The following applies: cited from earlier work.
The next assay relates to thrombus. More on the design: method as in PMID 24412029, PMID 22216842. The following applies: rat models, orally administered; cited from earlier work.
The mark [2] stands for this setting: FXa 0.5 nM, pH 7.4, 37 °C, OD 405 nm, read-out: IC50 against coagulation factor Xa (FXa).

Like-named read-outs stand apart in the source and are kept apart here.

The term IC50 denotes the concentration that gives 50% inhibition.

T1 sequence (P00743 41-180): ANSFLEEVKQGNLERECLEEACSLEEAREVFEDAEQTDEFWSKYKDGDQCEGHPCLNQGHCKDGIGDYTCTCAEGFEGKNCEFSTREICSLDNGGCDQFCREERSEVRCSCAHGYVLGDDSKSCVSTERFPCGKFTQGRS
T1 sequence (P00743 234-492): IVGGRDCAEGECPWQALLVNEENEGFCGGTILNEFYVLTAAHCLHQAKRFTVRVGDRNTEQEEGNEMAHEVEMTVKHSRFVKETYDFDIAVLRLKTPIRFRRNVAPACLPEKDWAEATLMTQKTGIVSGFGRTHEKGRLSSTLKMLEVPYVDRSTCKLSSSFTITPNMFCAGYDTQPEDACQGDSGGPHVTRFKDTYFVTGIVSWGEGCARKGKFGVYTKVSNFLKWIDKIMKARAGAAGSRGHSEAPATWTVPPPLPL

As for `CC(C)=CCC[C@](C)(O)[C@H]1CC[C@]2(C)[C@@H]1[C@H](O)C[C@@H]1[C@@]3(C)CC[C@H](O)C(C)(C)[C@@H]3[C@@H](O[C@@H]3O[C@H](CO)[C@@H](O)[C@H](O)[C@H]3O[C@@H]3O[C@H](CO)[C@@H](O)[C@H](O)[C@H]3O)C[C@]12C` [Rf, ginsenoside Rf], in the assay with Platelet poor plasma, the “In vitro anti-coagulation activity versus normal control” value is “insignificant anti-coagulation effects”. Also, in assay [1] (setting [2]), the IC50 was found to be 1030 nM.
For the compound `CC(C)=CCC[C@](C)(O)[C@H]1CC[C@]2(C)[C@@H]1[C@H](O)C[C@@H]1[C@@]3(C)CC[C@H](O)C(C)(C)[C@@H]3[C@@H](O[C@@H]3O[C@H](CO)[C@@H](O)[C@H](O)[C@H]3O)C[C@]12C` [Rh1, ginsenoside Rh1], the “In vitro anti-coagulation activity versus normal control” value with Platelet poor plasma is recorded as “significant anti-coagulation activity”. In assay [1], the IC50 was determined as 236 nM.
For the compound `CC(C)=CCC[C@](C)(O)[C@H]1CC[C@]2(C)[C@@H]1[C@H](O)C[C@@H]1[C@@]3(C)CC[C@H](O[C@@H]4O[C@H](CO)[C@@H](O)[C@H](O)[C@H]4O)C(C)(C)[C@@H]3CC[C@]12C` [Rh2, ginsenoside Rh2], in the assay on Platelet poor plasma, the “In vitro anti-coagulation activity versus normal control” value is “significant anti-coagulation activity”. Besides, in assay [1], half-maximal inhibition (IC50) required 349 nM.
For 20(R)-Rg3, in the assay with Platelet poor plasma, the “In vitro anti-coagulation activity versus normal control” value is recorded as “insignificant anti-coagulation effects”.
Consider `CC(C)=CCC[C@](C)(O[C@@H]1O[C@H](CO)[C@@H](O)[C@H](O)[C@H]1O)[C@H]1CC[C@]2(C)[C@@H]1[C@H](O)C[C@@H]1[C@@]3(C)CC[C@H](O)C(C)(C)[C@@H]3[C@@H](O[C@@H]3O[C@H](CO)[C@@H](O)[C@H](O)[C@H]3O)C[C@]12C` [Rg1, ginsenoside Rg1], for which, in the assay on Platelet poor plasma, the “In vitro anti-coagulation activity versus normal control” value was “significant anti-coagulation activity”. For the same compound, the “Anti-coagulant activities in vitro compared to heparin” value with blood coagulation is recorded as “significantly better anti-coagulant activities”. In addition, the IC50 in assay [1] (setting [2]) is 335 nM.
With `CC(C)=CCCC(C)(O)C1CCC2(C)C1C(O)CC1C3(C)CCC(O)C(C)(C)C3C(O)CC12C` (centres unmarked) [PPT, protopanaxtriol], the IC50 against human FIIa (thrombin) stood at 82000 nM; in assay [1] (setting [2]), 141 nM. In addition, the “In vitro anti-coagulation activity versus normal control” value with Platelet poor plasma is listed as “best bioactivity (p < 0.01)”.
For `CC(C)=CCC[C@](C)(O[C@@H]1O[C@H](CO)[C@@H](O)[C@H](O)[C@H]1O)[C@H]1CC[C@]2(C)[C@@H]1[C@H](O)C[C@@H]1[C@@]3(C)CC[C@H](O)C(C)(C)[C@@H]3[C@@H](O)C[C@]12C` [F1, ginsenoside F1], the “In vitro anti-coagulation activity versus normal control” value with Platelet poor plasma was “significant anti-coagulation activity”. In addition, the IC50 in assay [1] (setting [2]) was 227 nM.
Take ginsenoside Rg3: in the assay with Platelet poor plasma, the “In vitro anti-coagulation activity versus normal control” value was “best bioactivity (p < 0.01)”.
As for `CC(C)=CCC[C@](C)(O)[C@H]1CC[C@]2(C)[C@@H]1[C@H](O)C[C@@H]1[C@@]3(C)CC[C@H](O)C(C)(C)[C@@H]3[C@@H](O[C@@H]3O[C@H](CO)[C@@H](O)[C@H](O)[C@H]3O[C@@H]3O[C@@H](C)[C@H](O)[C@@H](O)[C@H]3O)C[C@]12C` [Rg2, ginsenoside Rg2], the IC50 is 81300 nM at human FIIa (thrombin) and 136 nM in assay [1] (setting [2]). In the assay with Platelet poor plasma, the “In vitro anti-coagulation activity versus normal control” value is listed as “best bioactivity (p < 0.01)”. Besides, in the assay with blood coagulation, the “Anti-coagulant activities in vitro compared to heparin” value is “significantly better anti-coagulant activities”.
Consider `CC(C)=CCCC(C)(O)C1CCC2(C)C1C(O)CC1C3(C)CCC(O)C(C)(C)C3CCC12C` (centres unmarked) [PPD, protopanaxdiol], for which the “In vitro anti-coagulation activity versus normal control” value in the assay on Platelet poor plasma is “significant anti-coagulation activity”. Moreover, the IC50 in assay [1] (setting [2]) came out at 339 nM.
For `CC1(C)[C@@H](O)CC[C@]2(C)[C@H]3C(=O)C=C4[C@@H]5C[C@@](C)(C(=O)O)CC[C@]5(C)CC[C@@]4(C)[C@]3(C)CC[C@@H]12` [glycyrrhetinic acid], the “Inhibition of FXa activity in vitro” value with FXa is given as “significantly inhibit FXa activity in vitro with specificity”. The Thrombus weight result with thrombus was “reduce thrombus weight”.
Take `CC(C)=CCC[C@](C)(O[C@@H]1O[C@H](CO)[C@@H](O)[C@H](O)[C@H]1O)[C@H]1CC[C@]2(C)[C@@H]1[C@H](O)C[C@@H]1[C@@]3(C)CC[C@H](O[C@@H]4O[C@H](CO)[C@@H](O)[C@H](O)[C@H]4O)C(C)(C)[C@@H]3CC[C@]12C` [F2, ginsenoside F2]: in the assay on Platelet poor plasma, the “In vitro anti-coagulation activity versus normal control” value is on record as “significant anti-coagulation activity”. For the same compound, the IC50 in assay [1] (setting [2]) was found to be 425 nM.
